The results in this text go back to patent publication US10060908B2, “Oxidized cardiolipin as a pro-inflammatory factor” (MEDIRISTA BIOTECHNOLOGIES AB, priority 2008, dated 2018).

The subject of assay [1] is ICAM-1 (CD54). The experiment in a line: Adhesion molecule expression by endothelial cells, flow cytometry (ICAM-1). In kind it is cell-based, human. The settings on record: HUVECs, 24 h. As to the method: (§1) Pooled human umbilical vascular endothelial cells (HUVECs) at passage 2 were purchased from Cascade Biologics, Inc (Portland, Ore). Cultures were maintained in EGM™ phenol red-free medium (Clonetics, San Diego, Calif.), containing 2% of fetal bovine serum and supplements, at 37° C. under humidified 5% CO2 conditions. All experiments were performed at passage 3 to 5. HUVECs were seeded at 6×10^4 cells/2 mL density on 6-well plates (NUNC Inc, Naperville, Ill.). After allowing endothelial cells overnight for attachment, cells were ready for stimulation.
(§2) After washing with PBS, OxCL and reduced CL (20 ug/ml) were added. For annexin A5 (From Bender MedSystems GmbH, Austria) inhibition study, OxCL was incubated with Annexin A5 (10 ug/ml) for half hour before adding to cells. After 24 hours incubation, detached floating cells were washed away, cell were harvested into Falcon FACS tubes. […] The intercellular adhesion molecule (ICAM-1) CD54 and the vascular cell adhesion molecule (VCAM-1) CD106 were studied with flow cytometry analysis equipped with CellQuest software. For each sample, 10,000 events were analyzed.
For orientation: Flow cytometry measures light scatter and fluorescence of single cells or particles in a stream.

In assay [2] the target is T1, Annexin A5 (Homo sapiens, UniProt P08758).
T1 construct: purchased Bender MedSystems GmbH, Austria
T1 sequence (P08758 1-320): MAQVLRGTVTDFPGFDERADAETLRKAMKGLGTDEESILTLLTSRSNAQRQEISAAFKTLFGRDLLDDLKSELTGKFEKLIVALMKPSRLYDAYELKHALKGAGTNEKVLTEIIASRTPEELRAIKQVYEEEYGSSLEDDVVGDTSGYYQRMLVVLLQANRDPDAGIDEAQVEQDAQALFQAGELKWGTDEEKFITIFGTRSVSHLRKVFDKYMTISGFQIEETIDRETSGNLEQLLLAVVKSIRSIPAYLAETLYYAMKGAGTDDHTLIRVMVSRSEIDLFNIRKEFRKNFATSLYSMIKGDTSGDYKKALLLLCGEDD
The experiment in a line: ELISA for Annexin A5 binding to coated cardiolipins. The settings on record: lipid 5 ug/ml coated overnight; Annexin A5 0.32-10.24 ug/ml. On the procedure: After five washings with PBS, the plates were blocked with 2% PBS-BSA for 2 h at room temperature. Annexin A5 were added and incubated for 1 hour. After washing, bound annexin A5 was detected by incubating subsequently with rabbit anti-human annexin V polyclonal antibodies (Hyphen Biomed, Andresy, France) 1:2000 and polyclonal goat anti-rabbit Immunoglobulins/AP (DakoCytomation) 1:3000 were used. The reaction was developed with alkaline phosphatase substrate (Sigma), and optical density (OD) was read at 405 nm with an ELISA Multiscan Plus spectrophotometer (Molecular Devices Emax, San Francisco). All samples were measured in duplicates and the coefficient of variation was below 15%.
In general terms: In an ELISA, binding on a coated surface is turned into a signal by an enzyme label.

Assay [3] relates to IL-6. The experiment in a line: IL-6 production by HUVEC, protein multiplex immunoassay. It counts as cell-based, human. The settings on record: HUVECs, 24 h; for IL-6 levels of the substance alone compared with the control group: 20 ug/ml. As to the method:
HUVEC cells from above were seeded at density 10^6/2 ml into 6 well plates. Allowing cells attachment for 24 hours, OxCL (20 ug/ml) with or without Annexin A5 (20 ug/ml) and reduced CL were added and incubated for 24 hours. Cell supernatant were collected and IL-6 and IL-8 production were measured with protein multiplex immunoassay kits (from Bioscource, USA) and Bio-PIei™ system (BioRad, USA).

Assay [4] relates to neutrophils. Put plainly: Intracellular calcium mobilization, FURA-2AM fluorometer. The settings on record: for MFI of calcium mobilization: within 120 seconds. In kind it is cell-based, human. As to the method: (§3) Human PMNs were isolated from freshly prepared buffy coats (Karolinska Hospital blood bank, Stockholm, Sweden) by dextran sedimentation, hypotonic lysis of erythrocytes and gradient centrifugation on Lymphoprep (Axis-Shield PoC AS, Oslo, Norway). PMNs were suspended at a density of 10×10^6/ml in Dulbecco's PBS (Gibco (Invitrogen), Paisley, UK). PMN purity (>95%) and viability (>98%) was determined using Hemacolor (J. T. Baker, Utrecht, Holland) and Trypan Blue (Sigma Chemical Co.) staining, respectively.
Neutrophils were added into black, 96-well plates with transparent bottom (Corning Costar; 5×10^4 cells/well), and spin down the plate at 120×g for 3 min, afterwards changing the medium containing 4 μM FURA-2AM (Fura-2 acetoxymethyl ester), or buffer as appropriate, and the cells were incubated for 30 min at 37° C. and 5% CO2. Cells were washed four times with 50 μl of a buffer solution (135 mM NaCl, 4.6 mM KCl, 1.2 mM MgCl2, 1.5 mM CaCl2, 11 mM glucose, 11 mM Hepes, pH 7.4) before a final 45 μl volume of buffer was added to each well.
The plates were transferred to a fluorometer (Fluostar™, BMG Technologies), and 50 μl of different agonists according to experimental designs or buffer solution as control were injected into individual wells and the cells were monitored for the next 120 seconds. Control wells containing cells that had not been exposed to FURA-2AM were used to subtract background auto-fluorescence. The results are given as the ratio of mean fluorescence intensity (MFI) between 340 and 380 nm, and normalized by control.
On the technique in general: A change in cytosolic calcium serves as a functional read-out for many receptors and channels.

The test system of assay [5] is VCAM-1 (CD106). The experiment in a line: Adhesion molecule expression by endothelial cells, flow cytometry (VCAM-1). It counts as cell-based, human. The settings on record: HUVECs, 24 h. As to the method: as §1, §2
Assay [6] concerns CD8-positive T-cells. Put plainly: Activation of CD8-positive T cells (CD69), flow cytometry. The settings on record: human PBMC, 5 ug/ml over night. In kind it is cell-based. On the procedure:
Both CD4 and CD8 positive T cells were studied. Quadrant Q2 represent (%) T-cells positive for CD69 expressing and thus activated T-cells.
Both CD4 and CD8 positive T-cells from the cell line Human PBMC where studied in an incubation setup illustrated in FIG. 11A-F. Both T-cell types where incubated with, buffer (control), oxCL or CL to determine the effect on activation, interpreted by the expression of CD69 surface molecule after stimulation.
In this experiment the attention must be drawn to the quadrant Q2 of the flow cytometry data shown. This quadrant represents the percentage of T-cells in the population tested to be CD69 positive, e.g. activated by the stimuli prior to the data collection.

Assay [7] deals with THP-1 differentiated macrophages. The experiment in a line: Uptake of Dil-labeled OxLDL in macrophages, flow cytometry. In kind it is cell-based, human. The settings on record: competitor 40, 80 ug/ml (LDL 40 ug/ml), Dil-OxLDL 5 ug/ml, 4 hours. On the procedure: OxLDL (Industrylane Frederick) were incubated with Dil (Molecular Probes Engene, Oregon, USA) in lipoprotein-deficient serum (Sigma) at 37° C. for 15 hours. Then dialyzed against saline-EDTA buffer for 6 hours.
Uptake of Dil-labelled OxLDL was studied either by Flow cytometry or Fluorescence/confocal microscopy. For microscopy, The macrophages 1×10^6 were grown overnight on culture slides (Nunc, Naperville, N.Y.), For flow cytometry, The macrophages were plated in a 6-well plate at density of 1×10^6 cells/well in DMEM (INVITROGEN, USA) containing 10% FBS overnight. […] Thereafter, the cells from above were washed 4 times with 0.2% BSA/PBS and once with PBS. The cells were harvested in PBS containing 0.1% BSA and 0.01% NaN3. Mean fluorescence intensity was measured by flow cytometry (BD Biosciences, San Jose, Calif., USA). For each sample, fluorescence emission above 550 nm was measured and a minimum of 10.000 cells was analyzed.

Assay [8] relates to leukotriene B4. The experiment in a line: Leukotriene B4 release from neutrophils, EIA. In kind it is cell-based. The settings on record: human neutrophils. On the procedure: as §3
(§4) Analysis of leukotriene B4 Biosynthesis by EIA kit 2×10^6 macrophages were incubated with different agents according to the experimental design, and then quenched with an equal volume methanol. After acidified to pH 3-4, the samples were purified by solid-phase extraction (Supelclean™ LC-18, Supelco) and eluted in methanol. After dried under nitrogen, the samples were re-suspended in EIA buffer. The level of LTB4 was determined with LTB4 EIA kit (Cayman Chemical) by using dilutions within the linear portion of the standard curve.

Assay [9] has as its system LTB4. The experiment in a line: Leukotriene B4 biosynthesis in macrophages, EIA. In kind it is cell-based. The settings on record: human monocyte-derived macrophages. As to the method: Human mononuclear cells were isolated from freshly prepared buffy coats (Karolinska Hospital blood bank, Stockholm, Sweden) by gradient centrifugation on Ficoll-Paque (Amersham Biosciences, Uppsala, Sweden). The mononuclear cells were cultured at a density of 5×10^6/ml in RPMI-1640 medium with 25 mM Hepes, 1% L-glutamine, 1% penicillin-streptomycin and 10% FBS. After 7 days, there are proximate 2×10^6 macrophages per well.
as §4

The mark [10] stands for this setting: oxCL 20 ug/ml preincubated with Annexin A5 10 ug/ml.

Cardiolipin [CL]: the ICAM-1 expression result in assay [1] (20 ug/ml) is listed as “did not show the same effect”. Moreover, the “binding to Annexin A5” value in [2] is listed as “can bind”. In addition, in assay [3], the “IL-6 levels of the substance alone compared with the control group” value is “could not significantly increase”. The “MFI of calcium mobilization” value in assay [4] is given as “did not increase”. For the same molecule, the VCAM-1 expression result in assay [5] (20 ug/ml) is on record as “did not show the same effect”. Also, the “CD69 expression (activation) of CD8-positive T cells” value in assay [6] is “not”. The “competition of dil-oxLDL uptake (in words)” value in [7] was “did not show the competition effetcts”. The “leukotriene B4 release” value in [8] is recorded as “did not show the similar reaction”.

Consider Hydro heart cardiolipin [reduced CL], for which the “binding to Annexin A5” value in assay [2] is “could not bind”. Moreover, the “competition of dil-oxLDL uptake (in words)” value in assay [7] is given as “not”.

B1: Annexin A5: member of the Annexin superfamily with anti-thrombotic properties; from Bender MedSystems (protein, UniProt P08758 2-320, looked up)
Annexin A5: AQVLRGTVTDFPGFDERADAETLRKAMKGLGTDEESILTLLTSRSNAQRQEISAAFKTLFGRDLLDDLKSELTGKFEKLIVALMKPSRLYDAYELKHALKGAGTNEKVLTEIIASRTPEELRAIKQVYEEEYGSSLEDDVVGDTSGYYQRMLVVLLQANRDPDAGIDEAQVEQDAQALFQAGELKWGTDEEKFITIFGTRSVSHLRKVFDKYMTISGFQIEETIDRETSGNLEQLLLAVVKSIRSIPAYLAETLYYAMKGAGTDDHTLIRVMVSRSEIDLFNIRKEFRKNFATSLYSMIKGDTSGDYKKALLLLCGEDD
With B1, the “inhibition of oxCL-induced ICAM-1 (CD54) expression” value in [1] (setting [10]) is listed as “significantly inhibited”. The “IL-6 levels of the substance alone compared with the control group” value in assay [3] is listed as “could not significantly increase”. In assay [3] (oxCL 20 ug/ml with Annexin A5 20 ug/ml), the “IL-6 level, oxCL with Annexin A5” value worked out at 276.4 ± 28.62 pg/mL. The “inhibition of oxCL-induced calcium mobilization” value in [4] (oxCL incubated with Annexin A5) is listed as “greatly inhibited”. In addition, in assay [4], the “MFI of calcium mobilization” value is “did not increase”. The “inhibition of OxCL-induced LTB4 production” value in assay [9] is given as “greatly inhibited”. In addition, in assay [5] (setting [10]), the “inhibition of oxCL-induced VCAM-1 (CD106) expression” value is “significantly inhibited”.
